Measurements from PubChem BioAssay (NCI).
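Each compound was tested at five concentrations against cells in 96-well plates for 48 hours. TGI is the concentration that stops growth completely.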

What was measured:
Experiment in all cases: DTP human tumour cell line panel, 48 h
[1] = tested on: ACHN renal
[2] = tested on: OVCAR-8 ovarian
[3] = tested on: NCI-H522 lung
[4] = tested on: KM12 colon
[5] = tested on: SF-539 CNS
[6] = tested on: K-562 leukemia
[7] = tested on: A549 NSCLC
[8] = tested on: BT-549 breast
[9] = tested on: SN12C renal
[10] = tested on: NCI-H23 lung
[11] = tested on: T-47D breast
[12] = tested on: COLO 205 colon
[13] = tested on: M14 melanoma
[14] = tested on: MOLT-4 leukemia
[15] = tested on: 786-0 renal
[16] = tested on: SK-MEL-2 melanoma
[17] = tested on: U251 CNS
[18] = tested on: CCRF-CEM leukemia
[19] = tested on: SF-295 CNS
[20] = tested on: MDA-MB-231 breast
[21] = tested on: HL-60(TB) leukemia
[22] = tested on: IGROV1 ovarian
[23] = tested on: MDA-MB-435
[24] = tested on: MCF7 breast
[25] = tested on: SW-620 colon
[26] = tested on: SF-268 CNS
[27] = tested on: RPMI-8226 leukemia
[28] = tested on: MDA-N
[29] = tested on: OVCAR-3 ovarian
[30] = tested on: SR leukemia
[31] = tested on: MALME-3M melanoma
[32] = tested on: NCI/ADR-RES ovarian
[33] = tested on: SK-MEL-5 melanoma
[34] = tested on: UO-31 renal
[35] = tested on: HS 578T breast
[36] = tested on: OVCAR-5 ovarian
[37] = tested on: OVCAR-4 ovarian
[38] = tested on: A498 renal
[39] = tested on: SK-MEL-28 melanoma
[40] = tested on: NCI-H226 lung
[41] = tested on: HOP-62 NSCLC
[42] = tested on: LOX IMVI melanoma
[43] = tested on: HT29 colon
[44] = tested on: HCT-116 colon
[45] = tested on: DU-145 prostate
[46] = tested on: SNB-19 CNS
[47] = tested on: EKVX NSCLC
[48] = tested on: HCT-15 colon
[49] = tested on: PC-3 prostate
[50] = tested on: HOP-92 NSCLC
[51] = tested on: CAKI-1 renal
[52] = tested on: SK-OV-3 ovarian
[53] = tested on: UACC-62 melanoma
[54] = tested on: RXF 393 renal
[55] = tested on: UACC-257 melanoma
[56] = tested on: TK-10 renal
[57] = tested on: HCC-2998 colon
[58] = tested on: SNB-75 CNS
[59] = tested on: NCI-H460 lung

Measured: TGI

C=CCN(C(=O)OC(C)(C)C)[C@H](C)C(=O)N[C@@H](C)C(=O)OC
not listed: [54] | [55] | [56] | [57] | [58] | [59]
> 100 µM: all other assays above

CCOC(=O)C1=NN(c2ccc([N+](=O)[O-])cc2)[C@@]2(C)C[C@]3(c4ccccc4)N(c4ccc([N+](=O)[O-])cc4)N=C(C(=O)OCC)N3c3ccccc3N12
84.4 µM: [20]
not listed: [50] | [59]
> 100 µM: all other assays above

COc1ccc(/C=C2\CCS(=O)(=O)c3ccccc3C2=O)cc1
38 µM: [34]
38.6 µM: [57]
96.4 µM: [16]
47.2 µM: [1]
98.2 µM: [26]
82.8 µM: [35]
61.6 µM: [56]
37.7 µM: [17]
40.4 µM: [42]
34.6 µM: [15]
35.9 µM: [43]
50 µM: [32]
62.8 µM: [40]
70.6 µM: [46]
68.5 µM: [18]
93.8 µM: [29]
75.3 µM: [20] | [49]
71.7 µM: [50]
72 µM: [39]
79.8 µM: [8]
89.8 µM: [23]
65.2 µM: [14]
40.5 µM: [30]
77.3 µM: [9] | [28]
43.1 µM: [22] | [48]
67.4 µM: [5]
53.4 µM: [2]
42.4 µM: [53]
67.5 µM: [51]
98.9 µM: [19]
57 µM: [59]
58.8 µM: [37]
66.4 µM: [21]
30.5 µM: [12]
61 µM: [27] | [45]
49.1 µM: [25]
74.3 µM: [11]
47.6 µM: [10]
31 µM: [4]
46.4 µM: [54] | [47]
31.2 µM: [44]
37.1 µM: [38]
56.5 µM: [55]
not listed: [3] | [31] | [33]
> 100 µM: all other assays above

O=c1c2cc3c(=O)n4c(cc(-c5ccccc5)c5cc(Cl)ccc54)nc3cc2nc2cc(-c3ccccc3)c3cc(Cl)ccc3n12
not listed: [21] | [31] | [37]
> 100 µM: all other assays above
